This note sets out measurements from patent USRE44768E1, “Rapamycin hydroxyesters” (Wyeth LLC, priority 1994, dated 2014).

“And” between values parts separate entries of the source, which are not always exact repeats. Identical values can stand only once. Like-named read-outs stand apart in the source and are kept apart here.

The subject of experiment [1] is cells from the thymus of normal BALB/c mice. Description: comitogen-induced thymocyte proliferation procedure (LAF). The settings on record: for LAF ratio: ratio compared with rapamycin, greater than 1 = inhibited thymocyte proliferation to a greater extent than rapamycin; for IC50: read-out: LAF IC50.
Description: Cells are cultured with and without various concentrations of rapamycin, cyclosporin A, or test compound. Cells are harvested and incorporated radio-activity is determined. Inhibition of lymphoproliferation is assessed as percent change in counts per minute from nondrug treated controls. For each compound evaluated, rapamycin was also evaluated for the purpose of comparison. An IC50 was obtained for each test compound as well as for rapamycin. […] The results obtained are provided as an IC50 and as the percent inhibition of T-cell proliferation at 0.1 μM. […] A positive ratio indicates immunosuppressive activity.
Experiment [2] relates to adjuvant arthritis (uninjected hind paw, T-cell mediated inflammation). Description: adjuvant arthritis standard pharmacological test procedure. Format: in vivo, male inbread Wistar Lewis rats. The settings on record: uninjected paw at day 16 versus control; oral dose of 5 mg/kg. As to the method: The adjuvant arthritis standard pharmacological test procedure measures the ability of test compounds to prevent immune mediated inflammation and inhibit or treat rheumatoid arthritis. The following briefly describes the test procedure used. A group of rats (male inbread Wistar Lewis rats) are pre-treated with the compound to be tested (1 h prior to antigen) and then injected with Freud's Complete Adjuvant (FCA) in the right hind paw to induce arthritis. The rats are then orally dosed on a Monday, Wednesday, Friday schedule from day 0-14 for […]. Both hind paws are measured on days 16, 23, and 30. The difference in paw volume (mL) from day 16 to day 0 is determined and a percent change from control is obtained. […] The right hind paw inflammation, on the other hand, is caused by non-specific inflammation. Compounds were tested at a dose of 5 mg/kg.

Experiment [3] deals with pinch skin graft from male BALB/c donors transplanted to male C3H(H-2K) recipients. Description: pinch skin graft survival test procedure. Format: in vivo. To be noted: mean graft survival time ± S.D., dose of 4 mg/kg. The protocol:
Representative compounds of this invention were also evaluated in an in vivo test procedure designed to determine the survival time of pinch skin graft from male BALB/c donors transplanted to male C3H(H-2K) recipients. The method is adapted from Billingham R. E. and Medawar P. B., J. Exp. Biol. 28:385-402, (1951). Briefly, as pinch skin graft from the donor was grafted on the dorsum of the recipient as a allograft, and an isograft was used as control in the same region. The recipients were treated with either varying concentrations of test compounds intraperitoneally or orally. Rapamycin was used as a test control. Untreated recipients serve as rejection control. The graft was monitored daily and observations were recorded until the graft became dry and formed a blackened scab. This was considered as the rejection day. The mean graft survival time (number of days±S.D.) of the drug treatment group was compared with the control group. […] Results are expressed as the mean survival time in days. Untreated (control) pinch skin grafts are usually rejected within 6-7 days. Compounds were tested using a dose of 4 mg/kg.

[4] abbreviates: thymocytes cultured 72 hours with PHA and IL-1, tritiated thymidine incorporation.

Turning to `CO[C@H]1C[C@@H]2CC[C@@H](C)[C@@](O)(O2)C(=O)C(=O)N2CCCC[C@H]2C(=O)O[C@H]([C@H](C)C[C@@H]2CC[C@@H](OC(=O)CO)[C@H](OC)C2)CC(=O)[C@H](C)/C=C(\C)[C@@H](O)[C@@H](OC)C(=O)[C@H](C)C[C@H](C)/C=C/C=C/C=C/1C` [Example 2, Rapamycin 42-ester with hydroxyacetic acid], the LAF ratio in experiment [1] turned out to be 0.83. In addition, the 50% inhibitory concentration (IC50) in experiment [1] (setting [4]) was determined as 1.8 nM. The “Percent change in adjuvant arthritis versus control” value in experiment [2] is given as −88%.
Take `COC1CC2CCC(C)C(O)(O2)C(=O)C(=O)N2CCCCC2C(=O)OC(C(C)CC2CCC(OC(=O)C(C)(C)COC3CCCCO3)C(OC)C2)CC(=O)C(C)C=C(C)C(O)C(OC)C(=O)C(C)CC(C)C=CC=CC=C1C` (centres unmarked) [Example 3, Rapamycin 42-ester with 2,2-dimethyl-3-(tetrahydropyran-2-yloxy)propionic acid]: the LAF ratio in experiment [1] is 0.34. In addition, the IC50 in experiment [1] (setting [4]) stood at 7.1 nM.
As for `CO[C@H]1C[C@@H]2CC[C@@H](C)[C@@](O)(O2)C(=O)C(=O)N2CCCC[C@H]2C(=O)O[C@H]([C@H](C)C[C@@H]2CC[C@@H](OC(=O)C(C)(C)CO)[C@H](OC)C2)CC(=O)[C@H](C)/C=C(\C)[C@@H](O)[C@@H](OC)C(=O)[C@H](C)C[C@H](C)/C=C/C=C/C=C/1C` [Example 4, Rapamycin 42-ester with 3-hydroxy-2,2-dimethylpropionic acid], the LAF ratio in experiment [1] amounted to 1.25. Also, the IC50 in experiment [1] (setting [4]) amounted to 0.8 nM. Further, the “Skin graft survival time” value in experiment [3] came to 10.7 ± 0.5 days.
As for `COC1CC2CCC(C)C(O)(O2)C(=O)C(=O)N2CCCCC2C(=O)OC(C(C)CC2CCC(OC(=O)C3COC(C)(C)O3)C(OC)C2)CC(=O)C(C)C=C(C)C(O)C(OC)C(=O)C(C)CC(C)C=CC=CC=C1C` (centres unmarked) [Example 5, Rapamycin 42-ester with 2,2-dimethyl[1,3]dioxalane-4-carboxylic acid], in experiment [1], the LAF ratio amounted to 0.74. In addition, the half-inhibitory concentration (IC50) in experiment [1] (setting [4]) amounted to 1.2 nM.
On the same counts, the results for `COC1CC2CCC(C)C(O)(O2)C(=O)C(=O)N2CCCCC2C(=O)OC(C(C)CC2CCC(OC(=O)C3COC(C)(C)O3)C(OC)C2)CC(=O)C(C)C=C(C)C(OC(=O)C2COC(C)(C)O2)C(OC)C(=O)C(C)CC(C)C=CC=CC=C1C` (centres unmarked) [Example 6, Rapamycin 31,42-diester with 2,2-dimethyl[1,3]dioxalane-4-carboxylic acid] are 0.5 and 1.3 nM.
For `COC1CC2CCC(C)C(O)(O2)C(=O)C(=O)N2CCCCC2C(=O)OC(C(C)CC2CCC(OC(=O)C3COC(C)(C)OC3)C(OC)C2)CC(=O)C(C)C=C(C)C(O)C(OC)C(=O)C(C)CC(C)C=CC=CC=C1C` (centres unmarked) [Example 8], in experiment [1], the LAF ratio is recorded as 0.45. Besides, the IC50 in experiment [1] (setting [4]) was 0.76 nM.
On to `COC1CC2CCC(C)C(O)(O2)C(=O)C(=O)N2CCCCC2C(=O)OC(C(C)CC2CCC(OC(=O)C(CO)CO)C(OC)C2)CC(=O)C(C)C=C(C)C(O)C(OC)C(=O)C(C)CC(C)C=CC=CC=C1C` (centres unmarked) [Example 9, Rapamycin 42-ester with 3-hydroxy-2-hydroxymethylpropionic acid], for which the LAF ratio in experiment [1] was determined as 0.57. The IC50 in experiment [1] (setting [4]) amounted to 0.84 nM.
For the molecule `CO[C@H]1C[C@@H]2CC[C@@H](C)[C@@](O)(O2)C(=O)C(=O)N2CCCC[C@H]2C(=O)O[C@H]([C@H](C)C[C@@H]2CC[C@@H](OC(=O)C3(C)COC(C)(C)OC3)[C@H](OC)C2)CC(=O)[C@H](C)/C=C(\C)[C@@H](O)[C@@H](OC)C(=O)[C@H](C)C[C@H](C)/C=C/C=C/C=C/1C` [Example 10], in experiment [1], the LAF ratio was found to be 0.41. For the same molecule, the IC50 in experiment [1] (setting [4]) stood at 4.9 nM. Also, in experiment [3], the “Skin graft survival time” value was found to be 11.0 ± 1.3 days.
In the case of `CO[C@H]1CC2CC[C@@H](C)[C@@](O)(O2)C(=O)C(=O)N2CCCC[C@H]2C(=O)O[C@H]([C@H](C)C[C@@H]2CC[C@@H](OC(=O)C(C)(CO)CO)[C@H](OC)C2)CC(=O)[C@H](C)/C=C(\C)[C@@H](O)[C@@H](OC)C(=O)[C@H](C)C[C@H](C)/C=C/C=C/C=C/1C` [Example 11, Rapamycin 42-ester with 2,2-bis-(hydroxymethyl)propionic acid], the “Skin graft survival time” value in experiment [3] (4 mg/kg) was 11.4 ± 1.5 days and 12.0 ± 1.1 days. The “Percent change in adjuvant arthritis versus control” value in experiment [2] is < 88%.
Take `COC1CC2CCC(C)C(O)(O2)C(=O)C(=O)N2CCCCC2C(=O)OC(C(C)CC2CCC(OC(=O)C3(C)COC4(CCCCC4)OC3)C(OC)C2)CC(=O)C(C)C=C(C)C(O)C(OC)C(=O)C(C)CC(C)C=CC=CC=C1C` (centres unmarked) [Example 13, Rapamycin 42-ester with 3-methyl-1,5-dioxa-spiro[5.5]undecane 3-carboxylic acid]: in experiment [1], the LAF ratio is 2.00. The IC50 in experiment [1] (setting [4]) is 0.6 nM.
Turning to `COC1CC2CCC(C)C(O)(O2)C(=O)C(=O)N2CCCCC2C(=O)OC(C(C)CC2CCC(OC(=O)C3(C)COC4(CCCCC4)OC3)C(OC)C2)CC(=O)C(C)C=C(C)C(OC(=O)C2(C)COC3(CCCCC3)OC2)C(OC)C(=O)C(C)CC(C)C=CC=CC=C1C` (centres unmarked) [Example 14, Rapamycin 31.42-diester with 3-methyl-1.5-dioxa-spiro[5.5]undecane 3-carboxylic acid], the “percent inhibition of T-cell proliferation” value in experiment [1] (at 0.1 μM) is recorded as 43%.
As for `CO[C@H]1C[C@@H]2CC[C@@H](C)[C@@](O)(O2)C(=O)C(=O)N2CCCC[C@H]2C(=O)O[C@H]([C@H](C)C[C@@H]2CC[C@@H](O)[C@H](OC)C2)CC(=O)[C@H](C)/C=C(\C)[C@@H](O)[C@@H](OC)C(=O)[C@H](C)C[C@H](C)/C=C/C=C/C=C/1C` [rapamycin, Rapamycin], the IC50 in experiment [1] (Mus musculus, Thymocyte, 72 h) lay in the range of 0.6 to 1.5 nM.
For the molecule “Rapamycin 42-ester with 2,2-dimethyl-5-(2-trimethylsilanylethoxymethyl)[1,3]dioxane-5-carboxylic acid [Example 12]”, in experiment [1], the LAF ratio was 0.05. Further, in experiment [1] (setting [4]), the IC50 turned out to be 7.2 nM.
On to “Rapamycin 42-ester with 2,3-dihydroxypropionic acid [Example 7]”, for which the LAF ratio in experiment [1] stood at 0.40. The IC50 in experiment [1] (setting [4]) came out at 1.4 nM.
